Assays:
constipation model rats = assay: Therapeutic effect on constipation model rats (modeling with compound diphenoxylate); format: in vivo, rat; settings: n = 8; for Time for first dark stools min: first administration with 5% activated carbon; for Time for first dark stools min / Small intestine propulsion rate %: x ± sd; for Small intestine propulsion rate %: gavage once daily; for Water content of stools %: stools collected on day 7, x ± sd
Description: • Modeling procedure: modeling with compound diphenoxylate. • Experimental drugs and reagents: activated carbon (5%); a 0.4 g/mL aqueous solution prepared from an arabinose drug. • Positive control: PEG (Shutaiqing). SPF-grade rats (Zhejiang Vital River Laboratory Animal Technology Co., Ltd.).
Except for the normal group, the successfully modeled rats were randomly divided into 5 groups, including a model group, a low dose group, a medium dose group, a high dose group, and a positive control group, 8 animals per group. Each rat was housed individually in separate cages, and operations were conducted fixedly at 10:00-12:00 every day. The normal group and the model group were gavaged with 0.2 mL of purified water. The positive control group was gavaged with 0.133 mL of a mosapride solution, and the low dose group, the medium dose group, and the high dose group were gavaged with 0.01 mL, 0.02 mL, and 0.04 mL of the test drug, respectively, with the volume adjusted to 0.2 mL using purified water. The rats had free access to food and water. The administration was performed for 7 consecutive days (times).
For the first administration, the drug with 5% activated carbon (based on 0.2 g×5%) added was intragastrically administered to the treatment group, and 0.2 mL of purified water with activated carbon added was intragastrically administered to the normal group and the model group. The time for the first dark stools was recorded.
The rats were intragastrically administered once daily. On day 7 after the continuous administration, the stools were collected using a sterile centrifuge tube and stored at −100° C. The collected stools were dried at 105° C. to a constant weight, and the water content of the stools was calculated according to the formula: water content of stools=(1−mass after drying/mass before drying)×100%.
The rats were intragastrically administered once daily for 14 days and then fasted for 12 h. 1 h after the last administration, each group of animals was gavaged with 0.15 mL of 5% activated carbon, and 30 min later, the rats were anesthetized with an intraperitoneal injection of 10% chloral hydrate. After anesthesia was completed, the abdominal operation was immediately performed. The intestinal canal from pylorus to ileocecal junction was cut off and placed on a glass plate. The length of the intestinal tract traversed by the ink and the total length of the intestinal tract were measured. The intestinal propulsion rate was the ratio of the two. The total length from pylorus to ileocecal junction and the distance from pylorus to the front of the carbon ink were measured, and the carbon ink propulsion percentage was calculated. Intestinal propulsion rate=distance from front of carbon ink to pylorus/full length of small intestine×100%.

SPF-grade rats = assay: Rat bowel preparation experiment (bowel cleansing effect); format: in vivo
Description: Experimental materials: L-arabinose, selected from the L-arabinose crystallization sample with batch No. 1221 in the example, prepared into a 0.4 g/mL solution with purified water; PEG (Shutaiqing), prepared into a 0.521 g/mL PEG solution with purified water; SPF-grade rats (Zhejiang Vital River Laboratory Animal Technology Co., Ltd.). • 5.1. Experimental animals and feeding thereof: SPF (specific pathogen free)-grade rats (200±10 g), 6 weeks old; normal feed was D12450-B feed: 67.35 wt % carbohydrates, 19.2 wt % crude protein, and 4.3 wt % fat. The temperature of the room was kept at 24° C. to 26° C. with humidity at 40% to 60%. • 5.2. Experimental method and procedures:
The SPF-grade rats were randomly divided into a blank control group, a positive control group, and a treatment group, 10 animals per group, half being male and half female. Administration method: Animals in each group were fasted (water was accessible) starting at 22:00 the night before experiment, were each given ½ the calculated amount of drug by intragastrical administration at 7:00 and 9:00 on the day of experiment, were each given 2.0 mL of purified water at 12:00 and 13:00, and were dissected 3.5 h after the last administration.

| SMILES | Time for first dark stools min (constipation model rats; High dose 0.80 g kg/d) | Small intestine propulsion rate % (constipation model rats; High dose 0.80 g kg/d) | Water content of stools % (constipation model rats; High dose 0.80 g kg/d) | Time for first dark stools min (constipation model rats; Low dose 0.20 g kg/d) | Small intestine propulsion rate % (constipation model rats; Low dose 0.20 g kg/d) | Water content of stools % (constipation model rats; Low dose 0.20 g kg/d) | Time for first dark stools min (constipation model rats; Medium dose 0.40 g kg/d) | Small intestine propulsion rate % (constipation model rats; Medium dose 0.40 g kg/d) | Water content of stools % (constipation model rats; Medium dose 0.40 g kg/d) | Dosage relative to that administered to the positive control group to achieve the same effect (SPF-grade rats; 9 g/kg L-arabinose vs 21.9 g/kg PEG) | Stools observed before the dissection (SPF-grade rats; L-arabinose batch No. 1221, 9 g/kg (22.5 mL/kg) intragastric in 2 doses, fasted rats) | Residue in the rectum and colon after the dissection (SPF-grade rats; L-arabinose batch No. 1221, 9 g/kg intragastric in 2 doses, dissected 3.5 h after last administration) | Time for first dark stools min (constipation model rats; Positive control 2.0 mg kg/d) | Small intestine propulsion rate % (constipation model rats; Positive control 2.0 mg kg/d) | Water content of stools % (constipation model rats; Positive control 2.0 mg kg/d) |
| --- | --- | --- | --- | --- | --- | --- | --- | --- | --- | --- | --- | --- | --- | --- | --- |
| O=C[C@H](O)[C@@H](O)[C@@H](O)CO [L-arabinose, L-Arabinose] | 63 ± 5.7 min | 83% ± 2.8 | 61% ± 2.4 | 76 ± 8.5 min | 75% ± 3.1 | 54% ± 1.8 | 64 ± 6.2 min | 80% ± 2.7 | 59% ± 2.7 | 41% | Watery and loose stools | no residue was left in the rectum and colon |  |  |  |
| CCOc1cc(N)c(Cl)cc1C(=O)NCC1CN(Cc2ccc(F)cc2)CCO1 (stereo not drawn) [Positive control, reference compound] |  |  |  |  |  |  |  |  |  |  |  |  | 67 ± 8.8 min | 82% ± 4.4 | 57% ± 0.9 |
